Results on 8 compounds are retold here after ChEMBL document CHEMBL1201862, “PubChem BioAssay data set” (2004).

The source made the active and inactive calls.

Experiment [1] is described as follows: cells. It is filed as functional, cell-based.
Experiment [2] has as its target Acyl-homoserine lactone acylase PvdQ (Pseudomonas aeruginosa (strain LESB58), UniProt Q9I194). As to the kind of experiment: PvdQ acylase enzyme activity blockers – biochemical, fluorescence, plate reader and imaging, cherry-picks, dose response (AID 493231).
A short description of experiment [3]: cells. It is filed as functional, cell-based. The source holds these as a separate data set.
The subject of experiment [4] is HeLa. As to the kind of experiment: viability loss in HeLa cells – cell-based, 24 h, cherry-picked samples, cytotoxicity control, dose response (AID 504726).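 Note: potency for cytotoxicity as loss of luminescence signal.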 Format: functional. To be noted: Homo sapiens.
Experiment [5] deals with Nonstructural protein 1 (Influenza A virus, UniProt Q194T2). It is filed as functional, Influenza A virus (A/California/07/2009(H1N1)).
Nonstructural protein 1, sequence (Q194T2 whole entry): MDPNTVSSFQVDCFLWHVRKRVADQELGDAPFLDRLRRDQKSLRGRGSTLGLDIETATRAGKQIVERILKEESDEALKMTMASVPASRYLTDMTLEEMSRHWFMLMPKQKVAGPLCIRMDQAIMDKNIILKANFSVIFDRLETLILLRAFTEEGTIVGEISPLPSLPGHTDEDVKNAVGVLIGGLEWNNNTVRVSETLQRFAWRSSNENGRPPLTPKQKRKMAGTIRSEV
For experiment [6], the target named is FAD-linked sulfhydryl oxidase ALR (Homo sapiens, UniProt P55789). As to the kind of experiment: ALR-catalysed DTT oxidation blockers – biochemical, H2O2 detection, luminescence, cherry-pick, dose response (AID 493248).
FAD-linked sulfhydryl oxidase ALR, sequence (P55789 whole entry): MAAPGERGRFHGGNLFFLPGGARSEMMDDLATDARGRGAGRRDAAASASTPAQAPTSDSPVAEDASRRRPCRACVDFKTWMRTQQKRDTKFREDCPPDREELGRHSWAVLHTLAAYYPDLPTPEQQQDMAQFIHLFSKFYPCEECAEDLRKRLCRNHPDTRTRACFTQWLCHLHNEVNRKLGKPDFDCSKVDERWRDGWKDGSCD
Experiment [7] concerns the target Estrogen receptor (Homo sapiens, UniProt P03372).
Experiment [8] has as its target T1, Estrogen receptor beta (Homo sapiens, UniProt Q92731).
Experiment [9] can be described thus: HPDE-C7 pancreatic duct cell viability loss – fluorescence, HTS (AID 430). Format: functional, cell-based. To be noted: Homo sapiens.
The target in experiment [10] is T1, Estrogen receptor beta. As to the kind of experiment: blockers of SRC-3 recruitment to ERβ – biochemical, ELISA, streptavidin-HRP readout, orthogonal assay, confirmation (AID 1060). A general note: An ELISA detects its analyte on a solid surface through an enzyme-linked reagent.
The nature of experiment [11]: viability loss of HPDE-C7K cells – cell-based, fluorescence, HTS, primary screen (AID 431). It is filed as functional. To be noted: Homo sapiens.
Experiment [12] in a line: Trypanosoma cruzi growth suppression in host cells – NIH3T3 host cells, beta-gal luminescence, confirmation (AID 2044).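 Note: intracellular parasites grown in NIH/3T3 mouse fibroblasts as host cells; luminescent beta-galactosidase reporter signal from transgenic T. cruzi replicating inside host cells; inhibitors lower the luminescence signal.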 It is filed as functional, cell-based.
Experiment [13] is described as follows: DRD fibroblast viability loss – cell-based, non-viral oncogenic, luminescence, dose response (AID 1934). Format: functional. To be noted: Homo sapiens.
Experiment [14] is described as follows: NIH3T3 cell viability loss – ATP luminescence, mouse fibroblasts, counter-screen, dose response (AID 2010).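 Note: cells exposed to compound for about 90 hours before reading.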 Format: functional, cell-based. (Counterscreens check selectivity or assay interference.)
Experiment [15] deals with BJ. Nature of the experiment: BJ-TERT fibroblast viability loss – cell-based, RAS-independent, luminescence, dose response (AID 1933). It is filed as functional. As to conditions: Homo sapiens.
The nature of experiment [16]: cells.
For experiment [17], the target named is Ephrin type-A receptor 4 (Mus musculus, UniProt Q03137). Nature of the experiment: EphA4 ligand-binding antagonists – biochemical, colorimetric, mouse EphA4, primary screen (AID 689). It is filed as functional.
Ephrin type-A receptor 4, sequence (Q03137 whole entry): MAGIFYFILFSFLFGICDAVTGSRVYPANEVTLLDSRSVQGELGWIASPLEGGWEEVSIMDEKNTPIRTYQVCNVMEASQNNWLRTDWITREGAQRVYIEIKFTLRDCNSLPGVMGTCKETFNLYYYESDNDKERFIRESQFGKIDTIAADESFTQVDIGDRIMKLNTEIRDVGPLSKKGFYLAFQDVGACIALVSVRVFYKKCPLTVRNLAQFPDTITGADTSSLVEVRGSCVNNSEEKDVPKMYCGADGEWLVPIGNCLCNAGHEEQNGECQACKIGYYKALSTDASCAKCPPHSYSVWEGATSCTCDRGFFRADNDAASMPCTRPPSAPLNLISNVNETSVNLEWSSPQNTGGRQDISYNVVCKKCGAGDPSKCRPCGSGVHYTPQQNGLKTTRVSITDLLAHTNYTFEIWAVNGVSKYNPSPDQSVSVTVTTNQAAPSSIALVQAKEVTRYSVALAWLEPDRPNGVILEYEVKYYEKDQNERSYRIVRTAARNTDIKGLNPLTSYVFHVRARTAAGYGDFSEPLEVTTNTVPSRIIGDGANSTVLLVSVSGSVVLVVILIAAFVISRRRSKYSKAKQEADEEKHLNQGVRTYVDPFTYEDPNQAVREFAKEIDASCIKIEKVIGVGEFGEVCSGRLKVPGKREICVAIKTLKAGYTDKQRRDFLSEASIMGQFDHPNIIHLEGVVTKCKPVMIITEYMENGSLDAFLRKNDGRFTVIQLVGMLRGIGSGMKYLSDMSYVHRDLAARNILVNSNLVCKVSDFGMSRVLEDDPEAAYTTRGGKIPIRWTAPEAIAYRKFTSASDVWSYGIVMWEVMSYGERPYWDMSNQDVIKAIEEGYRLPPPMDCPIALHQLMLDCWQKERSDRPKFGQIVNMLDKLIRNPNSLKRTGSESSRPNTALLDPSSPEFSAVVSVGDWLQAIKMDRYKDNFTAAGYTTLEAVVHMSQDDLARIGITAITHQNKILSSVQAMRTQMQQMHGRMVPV
For experiment [18], the target named is Cytochrome P450 3A4 (Homo sapiens, UniProt P08684).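 Note: CYP3A4 tested as one member of a cytochrome P450 panel screen.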
Cytochrome P450 3A4, sequence (P08684 whole entry): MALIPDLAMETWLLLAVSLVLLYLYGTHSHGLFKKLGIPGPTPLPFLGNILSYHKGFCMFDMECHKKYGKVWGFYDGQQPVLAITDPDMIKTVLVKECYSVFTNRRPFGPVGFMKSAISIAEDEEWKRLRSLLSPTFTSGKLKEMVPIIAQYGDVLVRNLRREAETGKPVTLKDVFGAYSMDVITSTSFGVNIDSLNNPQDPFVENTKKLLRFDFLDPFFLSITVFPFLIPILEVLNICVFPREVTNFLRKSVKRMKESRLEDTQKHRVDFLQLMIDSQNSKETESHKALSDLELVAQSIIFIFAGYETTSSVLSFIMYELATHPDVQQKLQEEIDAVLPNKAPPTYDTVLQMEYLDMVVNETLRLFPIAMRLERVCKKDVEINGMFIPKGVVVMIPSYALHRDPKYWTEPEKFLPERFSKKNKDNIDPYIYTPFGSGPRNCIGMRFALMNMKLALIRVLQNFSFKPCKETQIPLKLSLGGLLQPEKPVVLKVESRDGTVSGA
The target in experiment [19] is Voltage-dependent T-type calcium channel subunit alpha-1H (Homo sapiens, UniProt O95180). Format: functional.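 Note: channel activity triggered by adding a high calcium stimulation buffer.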
Experiment [20] deals with T2, Calpain-2 catalytic subunit (Sus scrofa, UniProt P43367).
T2 sequence (P43367 whole entry): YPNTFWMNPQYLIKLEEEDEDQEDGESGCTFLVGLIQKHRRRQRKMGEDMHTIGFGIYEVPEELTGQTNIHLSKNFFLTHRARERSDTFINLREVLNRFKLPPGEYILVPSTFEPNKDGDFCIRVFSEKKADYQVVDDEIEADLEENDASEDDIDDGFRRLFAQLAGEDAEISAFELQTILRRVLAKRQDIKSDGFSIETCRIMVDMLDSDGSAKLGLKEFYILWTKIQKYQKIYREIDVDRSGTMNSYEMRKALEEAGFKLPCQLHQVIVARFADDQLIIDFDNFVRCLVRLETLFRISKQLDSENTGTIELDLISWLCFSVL
As to the kind of experiment: m-calpain protease blockers, concentration series – biochemical, fluorogenic peptide substrate, dose response (AID 1420). It is filed as functional.

In experiment [21] the test system is BJ. Nature of the experiment: cells. To be noted: Homo sapiens. It is filed as functional, cell-based.
Experiment [22] relates to BJ. Nature of the experiment: BJ-TERT-LT-ST fibroblast viability loss – cell-based, RAS-independent, luminescence, dose response (AID 1935).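 Note: BJ fibroblasts immortalized with TERT plus LT and ST oncogenes.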 It is filed as functional. As to conditions: Homo sapiens.
A short description of experiment [23]: fluconazole-exposed Candida albicans growth modulators – fluorescence, retest, confirmation (AID 2467). It is filed as functional, cell-based.
Experiment [24] can be described thus: NIH-3T3 fibroblast cytotoxicity, dose response, cytotoxicity control, cell-based, fluorescence, Alamar Blue, secondary assay (AID 2327).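 Note: NIH-3T3 mouse fibroblasts cultured with fluconazole at 8 µg/mL.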 Format: functional. In general terms: The colour change of resazurin is a common sign of viable cells or microbes.
For experiment [25], the target named is Wee1-like protein kinase (Homo sapiens, UniProt P30291). Nature of the experiment: HeLa cell cycle G2/M accumulation – FACS, mechanism study for Wee1 degradation inhibitor project, late-stage follow-up, panel member Wee1 Degradation (AID 2088).
Wee1-like protein kinase, sequence (P30291 whole entry): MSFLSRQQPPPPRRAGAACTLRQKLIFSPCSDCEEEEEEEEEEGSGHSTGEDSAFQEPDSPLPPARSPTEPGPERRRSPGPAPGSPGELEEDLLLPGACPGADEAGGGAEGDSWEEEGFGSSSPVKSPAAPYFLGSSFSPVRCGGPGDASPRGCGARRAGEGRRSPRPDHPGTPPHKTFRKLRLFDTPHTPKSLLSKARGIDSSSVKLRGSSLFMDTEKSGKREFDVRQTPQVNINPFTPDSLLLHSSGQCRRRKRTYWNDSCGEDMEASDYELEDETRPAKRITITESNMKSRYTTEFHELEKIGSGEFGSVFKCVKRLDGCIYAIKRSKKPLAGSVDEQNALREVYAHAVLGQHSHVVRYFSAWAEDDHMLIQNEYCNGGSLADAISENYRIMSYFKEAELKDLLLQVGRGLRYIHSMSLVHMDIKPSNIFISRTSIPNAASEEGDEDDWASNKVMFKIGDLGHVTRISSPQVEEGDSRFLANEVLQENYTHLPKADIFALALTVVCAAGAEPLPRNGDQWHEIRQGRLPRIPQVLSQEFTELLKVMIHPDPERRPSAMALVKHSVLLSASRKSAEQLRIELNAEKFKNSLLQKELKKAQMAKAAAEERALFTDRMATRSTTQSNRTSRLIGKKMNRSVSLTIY
The target in experiment [26] is G2/mitotic-specific cyclin-B1 (Homo sapiens, UniProt P14635). Nature of the experiment: HeLa cell cycle G2/M accumulation – FACS, mechanism study for Wee1 degradation inhibitor project, late-stage follow-up, panel member Cyclin B Degradation (AID 2088).
G2/mitotic-specific cyclin-B1, sequence (P14635 whole entry): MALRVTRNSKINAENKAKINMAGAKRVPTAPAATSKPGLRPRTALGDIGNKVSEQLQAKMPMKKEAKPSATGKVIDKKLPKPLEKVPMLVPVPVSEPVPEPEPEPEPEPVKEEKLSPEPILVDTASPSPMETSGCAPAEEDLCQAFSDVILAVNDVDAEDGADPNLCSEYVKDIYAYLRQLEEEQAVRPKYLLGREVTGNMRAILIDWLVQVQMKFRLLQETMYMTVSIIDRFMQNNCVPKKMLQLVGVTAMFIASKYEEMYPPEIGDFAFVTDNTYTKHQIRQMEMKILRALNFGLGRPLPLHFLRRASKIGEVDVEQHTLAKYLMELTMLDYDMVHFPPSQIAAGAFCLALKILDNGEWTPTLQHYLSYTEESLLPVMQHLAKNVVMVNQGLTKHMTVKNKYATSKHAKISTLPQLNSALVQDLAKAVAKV

T1 sequence (Q92731 whole entry): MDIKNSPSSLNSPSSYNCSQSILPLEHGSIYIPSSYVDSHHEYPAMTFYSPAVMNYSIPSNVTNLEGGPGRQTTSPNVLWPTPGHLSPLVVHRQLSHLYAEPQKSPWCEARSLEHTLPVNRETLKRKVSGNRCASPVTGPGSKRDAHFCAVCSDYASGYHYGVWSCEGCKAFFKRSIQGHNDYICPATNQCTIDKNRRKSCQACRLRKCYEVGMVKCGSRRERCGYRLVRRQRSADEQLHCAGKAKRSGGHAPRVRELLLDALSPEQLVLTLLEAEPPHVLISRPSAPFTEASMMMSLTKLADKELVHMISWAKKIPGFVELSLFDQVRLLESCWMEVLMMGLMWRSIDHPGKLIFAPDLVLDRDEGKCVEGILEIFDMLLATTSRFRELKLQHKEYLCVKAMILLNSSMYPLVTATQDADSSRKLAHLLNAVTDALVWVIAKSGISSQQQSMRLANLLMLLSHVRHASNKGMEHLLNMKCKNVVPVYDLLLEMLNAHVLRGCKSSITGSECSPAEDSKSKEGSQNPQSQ
Acyl-homoserine lactone acylase PvdQ, sequence (Q9I194 24-193 limits assumed): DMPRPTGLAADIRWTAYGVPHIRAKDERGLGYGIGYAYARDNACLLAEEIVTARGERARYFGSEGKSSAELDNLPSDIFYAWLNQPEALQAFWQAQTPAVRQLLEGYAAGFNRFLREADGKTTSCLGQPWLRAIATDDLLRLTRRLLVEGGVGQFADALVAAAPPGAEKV
Acyl-homoserine lactone acylase PvdQ, sequence (Q9I194 217-762 limits assumed): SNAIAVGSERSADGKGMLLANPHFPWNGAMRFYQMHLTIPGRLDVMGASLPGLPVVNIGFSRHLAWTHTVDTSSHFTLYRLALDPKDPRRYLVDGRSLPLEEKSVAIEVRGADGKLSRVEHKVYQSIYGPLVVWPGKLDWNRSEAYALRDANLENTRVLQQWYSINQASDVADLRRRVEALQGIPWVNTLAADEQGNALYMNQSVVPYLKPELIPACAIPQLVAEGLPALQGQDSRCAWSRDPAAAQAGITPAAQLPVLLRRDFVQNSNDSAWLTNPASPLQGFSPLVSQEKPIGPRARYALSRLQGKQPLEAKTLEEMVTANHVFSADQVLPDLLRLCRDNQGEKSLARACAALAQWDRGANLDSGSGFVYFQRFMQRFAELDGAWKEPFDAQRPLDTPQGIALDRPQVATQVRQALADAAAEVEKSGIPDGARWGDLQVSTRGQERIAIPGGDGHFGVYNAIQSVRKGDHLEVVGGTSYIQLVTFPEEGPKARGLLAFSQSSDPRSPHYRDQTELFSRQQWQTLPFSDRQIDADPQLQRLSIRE
Estrogen receptor, sequence (P03372 whole entry): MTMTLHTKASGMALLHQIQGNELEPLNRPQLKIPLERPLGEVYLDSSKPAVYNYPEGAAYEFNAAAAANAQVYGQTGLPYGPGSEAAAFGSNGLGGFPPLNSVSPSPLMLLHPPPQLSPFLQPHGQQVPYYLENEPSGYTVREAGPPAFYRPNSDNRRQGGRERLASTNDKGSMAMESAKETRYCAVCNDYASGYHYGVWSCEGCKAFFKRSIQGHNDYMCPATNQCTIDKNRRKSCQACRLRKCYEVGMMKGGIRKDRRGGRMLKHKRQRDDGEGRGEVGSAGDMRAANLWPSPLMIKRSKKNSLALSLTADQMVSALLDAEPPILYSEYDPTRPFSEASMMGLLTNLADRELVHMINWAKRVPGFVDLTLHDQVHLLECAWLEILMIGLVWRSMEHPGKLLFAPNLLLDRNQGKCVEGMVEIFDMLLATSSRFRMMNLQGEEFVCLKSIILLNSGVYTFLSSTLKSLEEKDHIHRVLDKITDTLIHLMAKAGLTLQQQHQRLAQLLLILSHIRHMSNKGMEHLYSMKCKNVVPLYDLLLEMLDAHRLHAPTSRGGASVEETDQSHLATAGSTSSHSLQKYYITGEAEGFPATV

For `CCOC(=O)N1CCN(c2ccc(Cl)c(Cl)c2)CC1`, the EC50 in [1] and in experiment [3] was > 350 µM (not active) each time. In addition, in [2], the AC50 (commonly the concentration giving half of the maximal activity seen) is 25.5 µM (active).
As for `N=c1ccn(Cc2ccc(Cl)cc2)cc1`, the concentration at half-maximal activity (AC50) in experiment [4] is 16.4 µM (active).
For `Nc1ccc(OCc2ccccc2)cc1[N+](=O)[O-]`, in experiment [5], the concentration for half-maximal inhibition (IC50) (as a rule, the concentration at which inhibition is half-maximal) was 58.3 µM (active). Further, the AC50 in experiment [2] was 12.5 µM (active).
For `COC(=O)c1sc2nc(-c3ccco3)ccc2c1N`, the AC50 in [6] is 2.84 µM (active). Further, the IC50 in [7] is given as > 50 µM (not active); in experiment [8], 34.7 µM (not active).
Take `C=CC[C@@H](CC(=O)N(CCO)Cc1ccccc1)C(=O)NC[C@H](OC(=O)[C@@H](CC=C)CC(=O)OC(C)(C)C)c1ccccc1`: the AC50 in experiment [4] is 57.2 µM (active).
On to `N#CC1=C(SCC(=O)Nc2cccc3cccnc23)NC(=O)C(C#N)C12CCCCC2` (stereo not given), for which the EC50 in [9] and in experiment [11] was > 20 µM (not active) throughout. Besides, the IC50 in experiment [10] and in experiment [8] was > 50 µM (not active) throughout.
For the compound `CCN1/C(=C/c2ccc3cccc(C)c3[n+]2CC)Sc2ccccc21`, the EC50 (commonly the concentration giving half of the maximal effect) in [12] was < 0.1 µM (active); in [13], 13.6 µM (inconclusive); in experiment [14] it was 5.26 µM (active); in experiment [15] it was 0.37 µM (inconclusive); in [16] it was 0.031 µM (active); in experiment [19], 1.77 µM (active). Besides, the EC50 in experiment [21] was 1.19 µM (active); in experiment [22], 1.17 µM (inconclusive); in experiment [23] it was < 0.03 µM (active); in experiment [24], 18.6 µM (inconclusive). The half-inhibitory concentration (IC50) in experiment [17] is 44.1 µM (active); in experiment [20], > 50 µM (not active); in [5] it was > 100 µM (active). Further, in [18], the AC50 is 8.91 µM (inconclusive).
For the compound `CCc1ccccc1NC(=O)CCCOc1cc(=O)n(C)c2ccccc12`, the EC50 in [25] and in [26] was > 49.7 µM (inactive) throughout.
